Our source for the DC50 values is patent publication US12404285B2, “KRAS G12D proteolysis targeting chimeras” (PAQ Therapeutics Inc., priority 2022, dated 2025).

Structures are written as SMILES.

T1 sequence (P01116 1-188 isoform P01116-2 G12D): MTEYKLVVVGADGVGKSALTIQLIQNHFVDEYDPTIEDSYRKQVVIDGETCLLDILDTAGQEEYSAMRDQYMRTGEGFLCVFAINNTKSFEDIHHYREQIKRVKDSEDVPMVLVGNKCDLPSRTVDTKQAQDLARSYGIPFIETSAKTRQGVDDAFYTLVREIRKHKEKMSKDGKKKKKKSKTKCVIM

The experiment addresses T1, KRAS (G12D)-HiBit in AsPc-1-KRAS (G12D)-HiBit-KI cell (Homo sapiens, UniProt P01116, G12D).
T1 construct: host or cells: AsPc-1-KRAS (G12D)-HiBit-KI cells (knock-in line)
Briefly: G12D HiBit assay. The format is cell-based. To be noted: 24 hours compound treatment, absolute DC50, read-out: Average PHA DC50. The procedure:
Day 1. Prepared the culture medium for AsPc-1-KRAS (G12D)-HiBit-KI cell (Pharmaron) using RPMI 1640 medium (Gibco, 11875093) with 10% FBS (Gibco, 10099141C) and 1% Penicillin-Streptomycin Liquid (Solarbio, P1400). Cultivated cells in T-75 flasks in a cell culture incubator (Thermo, Model: 371) at 37° C., 5% CO2. Allowed cells to reach approximately 80% confluence before splitting. Rinsed cultivated cells in T-75 flasks with 5 mL PBS (Solarbio, P1020-500). Aspirated off PBS, added 1.5 mL trypsin (Invitrogen, #25300), and incubated at 37° C. for approximately 5 minutes or until the cells detached. Inactivated trypsin by adding excessive serum containing medium. Harvested the cells from flask into cell culture medium and counted the cell number. Seeded AsPc-1-KRAS (G12D)-HiBit-KI cell into 384-well plate (Corning, 3570) (cell density: 5×10^3 cells/well in 50 μL medium) in RPMI 1640 medium and incubated overnight at 37° C. and 5% CO2.
Day 2. Test compounds were dissolved at 0.3 mM in DMSO (Solarbio, D8371) as stock solution. Transferred 45 μL of stock solution to a 384-well plate (Labcyte, 001-14555). Performed 3-fold, 10-points dilution via transferring 15 μL compound into 30 μL DMSO by using TECAN liquid handler (TECAN, Freedom EVO200). The compound plates were spin at room temperature at 1,000 RPM for 1 minute (Eppendorf, 5810R). Transferred 50 nL of diluted compounds from compound source plate into the cell plate by Echo (Labcyte, 550) to achieve final concentrations of 300 nM, 100 nM, 33.3 nM, 11.1 nM, 3.7 nM, 1.23 nM, 0.41 nM, 0.14 nM, 0.046 nM and 0.015 nM, then mixed the cell plate on a plate shaker (Yoning, WZ-4) for 15 seconds at 900 rpm. After compound treatment for 24 hours, removed the plate from incubators and equilibrated at room temperature for 15 minutes. Prepared the HiBit reagent (Promega, N3040) by mixing 10 mL of Nano-Glo®-HiBiT Lytic Buffer with 200 μL of Nano-Glo®-HiBiT Lytic Substrate and 100 μL of LgBiT Protein. Added 20 μL of HiBit reagent into each well of the cell plate and spun the plates at room temperature at 1,000 RPM for 1 minute. Then shook the plates at 600 RPM at room temperature for 20 minutes using a plate shaker (Yoning, WZ-4), and read the luminescence by EnVision (PerkinElmer, 2105-0020).
The inhibition activity was calculated using the following formula: HiBit-G12D level (%)=100%×[Luminescence(Sample)/Mean of Luminescence (HC)] where HC (high control) is obtained from cells treated with 0.1% DMSO only.
Absolute DC50 was calculated by fitting the curve using GraphPad Prism v8.0.2 (analyis 263): Y=Bottom+(100−Bottom)/(1+10^(Log AbsoluteIC50−X)*HillSlope+log((100−Bottom)/(50−Bottom)−1)))
The data are reported in Table 3, wherein “+++”=DC50 less than 100 nM, “++”=DC50 greater than or equal to 100 nM and less than 300 nM; “+”=DC50 greater than or equal to 300 nM.
In general terms: With HiBiT, luminescence reflects the tagged protein that the partner subunit can reach.
Take `C#Cc1c(F)ccc2cccc(-c3ncc4c(N5CC6CCC(C5)N6)nc(OC[C@@]56CCCN5[C@H](COC(=O)N5CCC(C7CCN(Cc8ccc9c(c8)n(C)c(=O)n9C8CCC(=O)NC8=O)CC7)CC5)CC6)nc4c3F)c12` (stereo partly drawn) [Compound 55, [(3S,8S)-8-[[4-(3,8-Diazabicyclo[3.2.1]octan-3-yl)-7-(8-ethynyl-7-fluoro-1-naphthyl)-8-fluoro-pyrido[4,3-d]pyrimidin-2-yl]oxymethyl]-1,2,3,5,6,7-hexahydropyrrolizin-3-yl]methyl 4-[1-[[1-(2,6-dioxo-3-piperidyl)-3-methyl-2-oxo-benzimidazol-5-yl]methyl]-4-piperidyl]piperidine-1-carboxylate]: the DC50 was less than 100 nM.
Turning to `C#Cc1c(F)ccc2cccc(-c3ncc4c(N5CC6CCC(C5)N6)nc(OC[C@@]56CCCN5[C@H](COC(=O)N5CCC(N7CCN(Cc8ccc9c(c8)n(C)c(=O)n9C8CCC(=O)NC8=O)CC7)CC5)CC6)nc4c3F)c12` (stereo partly drawn) [Compound 56, [(3S,8S)-8-[[4-(3,8-Diazabicyclo[3.2.1]octan-3-yl)-7-(8-ethynyl-7-fluoro-1-naphthyl)-8-fluoro-pyrido[4,3-d]pyrimidin-2-yl]oxymethyl]-1,2,3,5,6,7-hexahydropyrrolizin-3-yl]methyl 4-[4-[[1-(2,6-dioxo-3-piperidyl)-3-methyl-2-oxo-benzimidazol-5-yl]methyl]piperazin-1-yl]piperidine-1-carboxylate], the DC50 was less than 100 nM.
Under `C#Cc1c(F)ccc2cccc(-c3ncc4c(N5CC6CCC(C5)N6)nc(OC[C@@]56CCCN5[C@H](COC(=O)N5CCC(OCCCCCCc7cccc8c7n(C)c(=O)n8C7CCC(=O)NC7=O)CC5)CC6)nc4c3F)c12` (stereo partly drawn) [Compound 58, [(3S,8S)-8-[[4-(3,8-Diazabicyclo[3.2.1]octan-3-yl)-7-(8-ethynyl-7-fluoro-1-naphthyl)-8-fluoro-pyrido[4,3-d]pyrimidin-2-yl]oxymethyl]-1,2,3,5,6,7-hexahydropyrrolizin-3-yl]methyl 4-[6-[1-(2,6-dioxo-3-piperidyl)-3-methyl-2-oxo-benzimidazol-4-yl]hexoxy]piperidine-1-carboxylate] stands less than 100 nM; under `C#Cc1c(F)ccc2cccc(-c3ncc4c(N5CC6CCC(C5)N6)nc(OC[C@@]56CCCN5[C@H](COC(=O)N5CCC(OCCCCCCCc7cccc8c7n(C)c(=O)n8C7CCC(=O)NC7=O)CC5)CC6)nc4c3F)c12` (some centres unmarked) [Compound 59], less than 100 nM.
Regarding `C#Cc1c(F)ccc2cccc(-c3ncc4c(N5CC6CCC(C5)N6)nc(OC[C@@]56CCCN5[C@H](COC(=O)N5CCC7(CCC(CCc8cccc9c8n(C)c(=O)n9C8CCC(=O)NC8=O)CC7)CC5)CC6)nc4c3F)c12` (stereo partly drawn) [Compound 60, [(3S,8S)-8-[[4-(3,8-Diazabicyclo[3.2.1]octan-3-yl)-7-(8-ethynyl-7-fluoro-1-naphthyl)-8-fluoro-pyrido[4,3-d]pyrimidin-2-yl]oxymethyl]-1,2,3,5,6,7-hexahydropyrrolizin-3-yl]methyl 9-[2-[1-(2,6-dioxo-3-piperidyl)-3-methyl-2-oxo-benzimidazol-4-yl]ethyl]-3-azaspiro[5.5]undecane-3-carboxylate], the DC50 is 100 to 300 nM.
Regarding `C#Cc1c(F)ccc2cccc(-c3ncc4c(N5CC6CCC(C5)N6)nc(OC[C@@]56CCCN5[C@H](COC(=O)N5CC7(CC(CCc8cccc9c8n(C)c(=O)n9C8CCC(=O)NC8=O)C7)C5)CC6)nc4c3F)c12` (stereo partly drawn) [Compound 61, [(3S,8S)-8-[[4-(3,8-diazabicyclo[3.2.1]octan-3-yl)-7-(8-ethynyl-7-fluoro-1-naphthyl)-8-fluoro-pyrido[4,3-d]pyrimidin-2-yl]oxymethyl]-1,2,3,5,6,7-hexahydropyrrolizin-3-yl]methyl 6-[2-[1-(2,6-dioxo-3-piperidyl)-3-methyl-2-oxo-benzimidazol-4-yl]ethyl]-2-azaspiro[3.3]heptane-2-carboxylate], the DC50 was 100 to 300 nM.
Consider `C#Cc1c(F)ccc2cccc(-c3ncc4c(N5CC6CCC(C5)N6)nc(OC[C@@]56CCCN5[C@H](COC(=O)N5CCC(OCC7CCN(Cc8cccc9c8n(C)c(=O)n9C8CCC(=O)NC8=O)CC7)CC5)CC6)nc4c3F)c12` (stereo partly drawn) [Compound 62, [(3S,8S)-8-[[4-(3,8-Diazabicyclo[3.2.1]octan-3-yl)-7-(8-ethynyl-7-fluoro-1-naphthyl) 8-fluoro-pyrido[4,3-d]pyrimidin-2-yl]oxymethyl]-1,2,3,5,6,7-hexahydropyrrolizin-3-yl]methyl4-[[1-[[1-(2,6-dioxo-3-piperidyl)-3-methyl-2-oxo-benzimidazol-4-yl]methyl]-4-piperidyl]methoxy]piperidine-1-carboxylate], for which the DC50 is less than 100 nM.
Regarding `C#Cc1c(F)ccc2cccc(-c3ncc4c(N5CC6CCC(C5)N6)nc(OC[C@@]56CCCN5[C@H](COC(=O)N5CCC(COC7CN(Cc8cccc9c8n(C)c(=O)n9C8CCC(=O)NC8=O)C7)CC5)CC6)nc4c3F)c12` (stereo partly drawn) [Compound 63, [(3S,8S)-8-[[4-(3,8-diazabicyclo[3.2.1]octan-3-yl)-7-(8-ethynyl-7-fluoro-1-naphthyl)-8-fluoro-pyrido[4,3-d]pyrimidin-2-yl]oxymethyl]-1,2,3,5,6,7-hexahydropyrrolizin-3-yl]methyl4-[[1-[[1-(2,6-dioxo-3-piperidyl)-3-methyl-2-oxo-benzimidazol-4-yl]methyl]azetidin-3-yl]oxymethyl]piperidine-1-carboxylate], the DC50 lay within 100 to 300 nM.
With `C#Cc1c(F)ccc2cccc(-c3ncc4c(N5CC6CCC(C5)N6)nc(OC[C@@]56CCCN5[C@H](COC(=O)N5CCN(C7CCN(Cc8cccc9c8n(C)c(=O)n9C8CCC(=O)NC8=O)CC7)CC5)CC6)nc4c3F)c12` (stereo partly drawn) [Compound 64, [(3S,8S)-8-[[4-(3,8-Diazabicyclo[3.2.1]octan-3-yl)-7-(8-ethynyl-7-fluoro-1-naphthyl)-8-fluoro-pyrido[4,3-d]pyrimidin-2-yl]oxymethyl]-1,2,3,5,6,7-hexahydropyrrolizin-3-yl]methyl 4-[1-[[1-(2,6-dioxo-3-piperidyl)-3-methyl-2-oxo-benzimidazol-4-yl]methyl]-4-piperidyl]piperazine-1-carboxylate], the DC50 is less than 100 nM.
Under `C#Cc1c(F)ccc2cccc(-c3ncc4c(N5CC6CCC(C5)N6)nc(OC[C@@]56CCCN5[C@H](COC(=O)N5CCC(N7CCC(Cc8cccc9c8n(C)c(=O)n9C8CCC(=O)NC8=O)CC7)CC5)CC6)nc4c3F)c12` (stereo partly drawn) [Compound 65, [(3S,8S)-8-[[4-(3,8-Diazabicyclo[3.2.1]octan-3-yl)-7-(8-ethynyl-7-fluoro-1-naphthyl)-8-fluoro-pyrido[4,3-d]pyrimidin-2-yl]oxymethyl]-1,2,3,5,6,7-hexahydropyrrolizin-3-yl]methyl 4-[4-[[1-(2,6-dioxo-3-piperidyl)-3-methyl-2-oxo-benzimidazol-4-yl]methyl]-1-piperidyl]piperidine-1-carboxylate] stands 100 to 300 nM.
In the case of `C#Cc1c(F)ccc2cccc(-c3ncc4c(N5CC6CCC(C5)N6)nc(OC[C@@]56CCCN5[C@H](COC(=O)N5CCC(N7CCC(Oc8cccc9c8n(C)c(=O)n9C8CCC(=O)NC8=O)CC7)CC5)CC6)nc4c3F)c12` (some centres unmarked) [Compound 66], the DC50 was less than 100 nM.
With `C#Cc1c(F)ccc2cccc(-c3ncc4c(N5CC6CCC(C5)N6)nc(OC[C@@]56CCCN5[C@H](COC(=O)N5CCC7(CC5)CC(CCc5ccc8c(c5)n(C)c(=O)n8C5CCC(=O)NC5=O)C7)CC6)nc4c3F)c12` (some centres unmarked) [Compound 67], the DC50 was less than 100 nM.
On to `C#Cc1c(F)ccc2cccc(-c3ncc4c(N5CC6CCC(C5)N6)nc(OC[C@@]56CCCN5[C@H](COC(=O)N5CCC(COC7CCN(Cc8ccc9c(c8)n(C)c(=O)n9C8CCC(=O)NC8=O)CC7)CC5)CC6)nc4c3F)c12` (some centres unmarked) [Compound 68], for which the DC50 was less than 100 nM.
With `C#Cc1c(F)ccc2cccc(-c3ncc4c(N5CC6CCC(C5)N6)nc(OC[C@@]56CCCN5[C@H](COC(=O)N5CCC(CCC7CCN(Cc8ccc9c(c8)n(C)c(=O)n9C8CCC(=O)NC8=O)CC7)CC5)CC6)nc4c3F)c12` (some centres unmarked) [Compound 69], the DC50 is less than 100 nM.
